Data as given in article doi:10.1101/2025.04.25.650653, “Hierarchical small molecule inhibition of MYST acetyltransferases” (bioRxiv, 2025).
Where two headings read alike, the source gives them in different places.

Assays:
NCI-60 cell line panel = test: NCI-60 cell line screen, sulforhodamine B growth inhibition; type: cell-based, human; details: most cases, 48 h
KAT5 MYST domain [1] = details: MYST domains, cited from earlier work
KAT6A MYST domain [2] = details: MYST domains, cited from earlier work
KAT7 MYST domain [3] = details: MYST domains, cited from earlier work
[4] = test system: histone acetylation biomarkers for KAT6, KAT7, KAT8, and KAT5; test: Histone acetylation biomarker panel by western blot, MCF-7; type: cell-based
Source text: Figure 5. Comparative cellular analysis of orthogonal MYST inhibitor chemotypes. (A) Chemical structures of commonly used MYST KAT inhibitors. Annotated target: KAT enzyme specified as target of each inhibitor in scientific or commercial vendor literature. Biomarker: KAT-regulated histone acetylation biomarker found to be modulated by each compound in this study. (B) Cellular response of histone acetylation biomarkers for KAT6, KAT7, KAT8, and KAT5 to treatment with drug-like MYST acetyltransferases inhibitors. MCF-7 cells were treated with escalating dosages (0.1, 1, 10, 30 μM.) of each compound for 24 h. […] Data is representative of n=2 biological replicates. […]
(§1) Target engagement was assessed using the panel of MYST-dependent histone acetylation biomarkers defined above. […] While WM-3835 has been applied to study KAT7, its initial publication alludes to its ability to inhibit both KAT6A/B and KAT7.[14], [43] […] All commercial vendors currently market WM-3835 as a KAT7 inhibitor.
(§2) General materials and methods
Total protein on western blots was
(§3) manufacturer's protocols.
KAT capture and competitive chemoproteomic profiling
(§4) for 2 hours, then lyophilized.

H3K14Ac (KAT7) = test: Histone acetylation biomarker western blot, MCF-7; type: cell-based; details: MCF-7 cells, 24 h
KAT6A MYST domain [5] = details: SPR, MYST domains, cited from earlier work
H3K23Ac (KAT6A/B) = test: Histone acetylation biomarker western blot, MCF-7; type: cell-based; details: MCF-7 cells, 24 h
H4K16Ac (KAT8) = test: Histone acetylation biomarker western blot, MCF-7; type: cell-based; details: MCF-7 cells, 24 h, up to 30 μM
Procedure: as §1, §2
Total protein on western blots was […]
as §3
KAT capture and competitive chemoproteomic profiling […]
as §4
12 μL triethylamine. […] The beads were then magnetically separated […]
distinguish between tightly grouped and diffuse clusters, compactness was quantified by calculating the average pairwise Euclidean distance between all points within each cluster. Clusters with lower average

KAT7 MYST domain [6] = details: SPR, MYST domains, as previously described (WM-8014); ref https://www.nature.com/articles/s41586-019-1835-6; cited from earlier work
[7] = test system: proteins captured by H3K14-CoA resin from HeLa nuclear extracts; test: Proteome-wide competitive chemoproteomic profiling (H3K14-CoA beads, TMT LC-MS/MS); type: binding; details: for Log2FC (100nM) / (000nM): 100 nM WM-3835, H3K14-CoA beads; for Log2FC (100nM) / (000nM) / Log2FC (1000nM) / (000nM) / Log2FC (10000nM) / (000nM): TMT; for Log2FC (1000nM) / (000nM): 1000 nM WM-3835, H3K14-CoA beads; for Log2FC (10000nM) / (000nM): 10000 nM WM-3835, H3K14-CoA beads
KAT5 MYST domain [8] = details: SPR, MYST domains, as previously described (WM-8014); ref https://www.nature.com/articles/s41586-019-1835-6; cited from earlier work
KAT8 MYST domain = test system: KAT8 MYST domain; set-up: method as in https://www.nature.com/articles/s41586-018-0387-5; details: MYST domains, 0.4 uM AcCoA, H4 peptide; ref https://www.nature.com/articles/s41586-018-0387-5; cited from earlier work
KAT6B MYST domain = test system: KAT6B MYST domain; set-up: method as in https://www.nature.com/articles/s41586-018-0387-5; details: MYST domains, 0.4 uM AcCoA, H4 peptide; ref https://www.nature.com/articles/s41586-018-0387-5; cited from earlier work
[9] = protein MBTD1 (Q05BQ5, NuA4/Tip60)
[10] = protein MRGBP (Q9NV56, NuA4/Tip60)
[11] = protein TRRAP (Q9Y4A5, NuA4/Tip60)

C[C@H](CN[C@@H](C(=O)Nc1ccc(-c2cnn(C)c2)cn1)c1ccccc1)c1ccc(C#N)cc1 [CPI-1612]
growth inhibition potency compared with PF-9363 (NCI-60 cell line panel): much more potent

O=C(NNS(=O)(=O)c1ccccc1F)c1cc(F)cc(-c2ccccn2)c1 [WM-1119]
IC50 (KAT5 MYST domain [1]; 1 μM acetyl-CoA, ref https://www.nature.com/articles/s41586-019-1835-6, read-out: KAT5 IC50 in μM (paper2)): 9.8 µM
IC50 (KAT6A MYST domain [2]; 0.4 uM AcCoA, ref https://www.nature.com/articles/s41586-018-0387-5, read-out: KAT6A IC50 in μM (paper 1)): 0.0063 µM
IC50 (KAT6A MYST domain [2]; 1 μM acetyl-CoA, ref https://www.nature.com/articles/s41586-019-1835-6, read-out: KAT6A IC50 in μM (paper2)): 0.077 µM
IC50 (KAT7 MYST domain [3]; 1 μM acetyl-CoA, ref https://www.nature.com/articles/s41586-019-1835-6, read-out: KAT7 IC50 in μM (paper2)): 0.578 µM
effect on biomarkers other than KAT6A/B ([4]; MCF-7 cells, high concentrations): untouched
inhibition of KAT7 (H3K14Ac) at the highest concentration tested (H3K14Ac (KAT7); 30 μM): little inhibition of KAT7

Cc1cc(-c2ccccc2)cc(C(=O)NNS(=O)(=O)c2cccc(O)c2)c1F [WM-3835]
IC50 (KAT5 MYST domain [1]; 1 μM acetyl-CoA, WM-3835 sheet, ref https://www.nature.com/articles/s41586-019-1835-6, read-out: KAT5 IC50): 0.312 µM
IC50 (KAT6A MYST domain [2]; 1 μM acetyl-CoA, WM-3835 sheet, ref https://www.nature.com/articles/s41586-019-1835-6, read-out: KAT6A IC50): 0.017 µM
Kd (KAT6A MYST domain [5]; as previously described (WM-8014), ref https://www.nature.com/articles/s41586-019-1835-6): 7 nM
IC50 (KAT7 MYST domain [3]; 1 μM acetyl-CoA, WM-3835 sheet, ref https://www.nature.com/articles/s41586-019-1835-6, read-out: KAT7 IC50): 0.03 µM
inhibition of KAT6A/B-catalyzed H3K23Ac (H3K23Ac (KAT6A/B)): potently inhibits
inhibition of KAT8 (H4K16Ac) (H4K16Ac (KAT8)): not KAT8
Kd (KAT7 MYST domain [6]): 34 nM
more potent inhibition of KAT6A/B (H3K23Ac) than KAT7 (H3K14Ac) ([4]; MCF-7 model, 24 h): ~ 100 fold
competition of JADE2 versus BRPF3 capture ([7]; 0, 0.1, 1, 10 μM): differential competition of JADE2 and BRPF3 capture
Log2FC (100nM) / (000nM) ([7]; protein KAT14 (Q9H8E8, STAGA)): 0.25
Log2FC (1000nM) / (000nM) ([7]; protein KAT14 (Q9H8E8, STAGA)): -0.01
Log2FC (10000nM) / (000nM) ([7]; protein KAT14 (Q9H8E8, STAGA)): -0.28
Log2FC (100nM) / (000nM) [7, 9]: 0.4
Log2FC (1000nM) / (000nM) [7, 9]: 0.54
Log2FC (10000nM) / (000nM) [7, 9]: 0.24
Log2FC (100nM) / (000nM) [7, 10]: 0.37
Log2FC (1000nM) / (000nM) [7, 10]: 0.49
Log2FC (10000nM) / (000nM) [7, 10]: 0.27
Log2FC (100nM) / (000nM) [7, 11]: -0.03
Log2FC (1000nM) / (000nM) [7, 11]: 0.04
Log2FC (10000nM) / (000nM) [7, 11]: -0.06
Kd (KAT5 MYST domain [8]): 500 nM

Cc1cc(-c2ccccc2)cc(C(=O)NNS(=O)(=O)c2ccccc2)c1F [WM-8014]
IC50 (KAT5 MYST domain [1]; 5 uM AcCoA, H4 peptide, ref https://www.nature.com/articles/s41586-018-0387-5, read-out: KAT5 IC50): 0.224 µM
IC50 (KAT6A MYST domain [2]; 0.4 uM AcCoA, H4 peptide, ref https://www.nature.com/articles/s41586-018-0387-5, read-out: KAT6A IC50): 0.0082 µM
Kd (KAT6A MYST domain [5]; ref https://www.nature.com/articles/s41586-018-0387-5): 5.1 nM
IC50 (KAT8 MYST domain): 11000 nM
IC50 (KAT7 MYST domain [3]; 1 uM AcCoA, H4 FL, ref https://www.nature.com/articles/s41586-018-0387-5, read-out: KAT7 IC50): 0.342 µM
inhibition of KAT8 (H4K16Ac) (H4K16Ac (KAT8)): not KAT8
doses at which KAT7 (H3K14Ac) is inhibited (H3K14Ac (KAT7)): 10 to 30 µM
IC50 (KAT6B MYST domain): 28 nM
